# Results reported in ChEMBL document CHEMBL5465560, “Selectivity Literature for EUbOPEN Chemogenomic Library” (2024).
# Experiments:
# [1] = tested on: Tyrosine-protein kinase ABL1 (Homo sapiens), P00519 [H396P]; assay: Selectivity interaction (KinomeScan (DiscoverX)) EUB0000229b ABL1; details: at 1 µM
# [2] = target: Activin receptor type-2A (Homo sapiens) (UniProt P27037); assay: Selectivity interaction (KinomeScan (DiscoverX)) EUB0001079a ACVR2A; details: at 1 µM
# [3] = target: Tyrosine-protein kinase SYK (Homo sapiens, UniProt P43405); assay: Selectivity interaction (KinomeScan (DiscoverX)) EUB0001079a SYK; details: at 1 µM
# [4] = target: Transcription intermediary factor 1-beta (Homo sapiens) (UniProt Q13263); assay: Selectivity interaction (Human bromodomain panel (DSF assay)) EUB0000233b TRIM28
# [5] = target: Tyrosine-protein kinase HCK (Homo sapiens) (UniProt P08631); assay: Selectivity interaction (ActivX KiNativ screen (kinase selectivity in THP-1 cell lysates)) EUB0000639a HCK; assay type: subcellular; details: lysate, at 1 µM
# [6] = target: Tyrosine-protein kinase JAK2 (Homo sapiens, UniProt O60674); assay: Selectivity interaction (Kinase panel (Invitrogen)) EUB0000639a JAK2; details: at 200 nM
# [7] = target: Citron Rho-interacting kinase (Homo sapiens) (UniProt O14578); assay: Selectivity interaction (KinomeScan (DiscoverX)) EUB0000595a CIT; details: at 10 µM
# [8] = target: Ribosomal protein S6 kinase alpha-4 (Homo sapiens) (UniProt O75676); assay: Selectivity interaction (KinomeScan (DiscoverX)) EUB0000092b RPS6KA4; details: at 10 µM
# [9] = target: BMP-2-inducible protein kinase (Homo sapiens) (UniProt Q9NSY1); assay: Selectivity interaction (Ambit KINOMEscan and KiNATiv profiling in Jurkat cells) EUB0000090b BMP2K; assay type: cell-based; details: at 1 µM
# [10] = target: T1, Cytoplasmic tyrosine-protein kinase BMX (Homo sapiens) (UniProt P51813); assay: Selectivity interaction (Ambit KINOMEscan and KiNATiv profiling in Jurkat cells) EUB0000090b BMX; assay type: cell-based; details: at 1 µM
# T1 sequence (whole entry): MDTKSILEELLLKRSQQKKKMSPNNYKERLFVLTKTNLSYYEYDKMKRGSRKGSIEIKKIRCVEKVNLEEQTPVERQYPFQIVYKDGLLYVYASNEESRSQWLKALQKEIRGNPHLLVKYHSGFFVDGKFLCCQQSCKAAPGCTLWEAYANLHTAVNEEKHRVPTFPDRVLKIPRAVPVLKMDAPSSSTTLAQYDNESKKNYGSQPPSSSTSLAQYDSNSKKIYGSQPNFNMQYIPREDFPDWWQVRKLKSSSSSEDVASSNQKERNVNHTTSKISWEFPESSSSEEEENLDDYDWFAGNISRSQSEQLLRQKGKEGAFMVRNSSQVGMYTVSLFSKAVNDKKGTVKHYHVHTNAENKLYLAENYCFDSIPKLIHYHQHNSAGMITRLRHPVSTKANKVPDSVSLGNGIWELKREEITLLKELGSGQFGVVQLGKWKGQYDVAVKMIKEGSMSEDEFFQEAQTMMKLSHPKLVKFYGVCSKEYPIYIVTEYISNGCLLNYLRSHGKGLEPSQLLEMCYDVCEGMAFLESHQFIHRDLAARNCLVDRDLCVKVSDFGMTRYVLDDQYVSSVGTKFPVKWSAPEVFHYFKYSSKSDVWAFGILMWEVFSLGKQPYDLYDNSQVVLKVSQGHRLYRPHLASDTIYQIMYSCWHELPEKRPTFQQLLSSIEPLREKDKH
# [11] = target: T2, TGF-beta receptor type-1 (Homo sapiens) (UniProt P36897); assay: Selectivity interaction (KinomeScan (DiscoverX)) EUB0000618a TGFBR1; details: at 10 µM
# T2 sequence (whole entry): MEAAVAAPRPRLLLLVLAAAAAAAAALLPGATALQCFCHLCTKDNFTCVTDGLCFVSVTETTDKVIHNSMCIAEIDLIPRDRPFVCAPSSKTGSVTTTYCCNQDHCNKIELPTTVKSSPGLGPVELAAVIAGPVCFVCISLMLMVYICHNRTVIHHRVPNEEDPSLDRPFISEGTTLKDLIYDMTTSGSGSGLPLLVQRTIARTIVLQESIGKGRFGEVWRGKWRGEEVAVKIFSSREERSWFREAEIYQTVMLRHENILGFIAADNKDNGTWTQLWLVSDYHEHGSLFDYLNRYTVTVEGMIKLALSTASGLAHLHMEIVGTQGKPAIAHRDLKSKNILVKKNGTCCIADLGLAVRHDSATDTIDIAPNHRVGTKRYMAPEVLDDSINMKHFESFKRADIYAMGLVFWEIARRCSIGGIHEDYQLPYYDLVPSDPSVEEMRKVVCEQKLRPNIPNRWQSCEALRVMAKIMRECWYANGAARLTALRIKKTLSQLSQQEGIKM
# [12] = target: T3, cAMP-dependent protein kinase catalytic subunit PRKX (Homo sapiens) (UniProt P51817); assay: Selectivity interaction (Upstate Kinase Profiler service (Millipore)) EUB0000056c PRKX; details: at 1 µM
# T3 sequence (whole entry): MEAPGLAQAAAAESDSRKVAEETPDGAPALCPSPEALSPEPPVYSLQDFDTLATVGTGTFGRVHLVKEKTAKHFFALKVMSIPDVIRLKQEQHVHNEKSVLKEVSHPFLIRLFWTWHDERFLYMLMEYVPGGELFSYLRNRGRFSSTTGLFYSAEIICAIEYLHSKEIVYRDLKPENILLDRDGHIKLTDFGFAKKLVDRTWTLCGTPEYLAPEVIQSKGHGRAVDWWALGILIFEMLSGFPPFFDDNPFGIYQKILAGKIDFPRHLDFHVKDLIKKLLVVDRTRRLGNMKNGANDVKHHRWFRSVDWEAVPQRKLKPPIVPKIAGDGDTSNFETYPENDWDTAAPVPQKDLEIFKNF
# [13] = target: RAC-beta serine/threonine-protein kinase (Homo sapiens) (UniProt P31751); assay: Selectivity interaction (KinomeScan (DiscoverX)) EUB0000607a AKT2; details: at 10 µM
# [14] = target: Serine/threonine-protein kinase PLK3 (Homo sapiens, UniProt Q9H4B4); assay: Selectivity interaction (ProQinase) EUB0000171b PLK3
# Sequence of Serine/threonine-protein kinase PLK3 (Q9H4B4 whole entry, looked up): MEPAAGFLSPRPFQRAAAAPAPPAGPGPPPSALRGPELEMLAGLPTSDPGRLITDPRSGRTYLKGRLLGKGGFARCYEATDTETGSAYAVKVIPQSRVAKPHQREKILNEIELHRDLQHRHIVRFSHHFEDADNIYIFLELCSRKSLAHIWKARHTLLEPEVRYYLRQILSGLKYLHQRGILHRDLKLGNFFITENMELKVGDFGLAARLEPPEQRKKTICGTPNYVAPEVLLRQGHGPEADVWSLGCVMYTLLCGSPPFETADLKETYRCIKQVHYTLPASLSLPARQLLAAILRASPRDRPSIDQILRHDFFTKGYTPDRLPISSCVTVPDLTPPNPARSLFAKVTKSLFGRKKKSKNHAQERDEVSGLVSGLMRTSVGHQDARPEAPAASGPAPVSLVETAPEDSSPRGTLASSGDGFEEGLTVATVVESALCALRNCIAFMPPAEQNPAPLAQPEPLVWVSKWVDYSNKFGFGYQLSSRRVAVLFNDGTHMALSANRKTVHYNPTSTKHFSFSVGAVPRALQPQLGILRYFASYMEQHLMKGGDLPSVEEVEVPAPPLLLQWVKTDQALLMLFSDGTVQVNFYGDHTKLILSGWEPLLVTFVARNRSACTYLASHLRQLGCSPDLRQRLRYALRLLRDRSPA
# Sequence of Tyrosine-protein kinase JAK2 (O60674 whole entry): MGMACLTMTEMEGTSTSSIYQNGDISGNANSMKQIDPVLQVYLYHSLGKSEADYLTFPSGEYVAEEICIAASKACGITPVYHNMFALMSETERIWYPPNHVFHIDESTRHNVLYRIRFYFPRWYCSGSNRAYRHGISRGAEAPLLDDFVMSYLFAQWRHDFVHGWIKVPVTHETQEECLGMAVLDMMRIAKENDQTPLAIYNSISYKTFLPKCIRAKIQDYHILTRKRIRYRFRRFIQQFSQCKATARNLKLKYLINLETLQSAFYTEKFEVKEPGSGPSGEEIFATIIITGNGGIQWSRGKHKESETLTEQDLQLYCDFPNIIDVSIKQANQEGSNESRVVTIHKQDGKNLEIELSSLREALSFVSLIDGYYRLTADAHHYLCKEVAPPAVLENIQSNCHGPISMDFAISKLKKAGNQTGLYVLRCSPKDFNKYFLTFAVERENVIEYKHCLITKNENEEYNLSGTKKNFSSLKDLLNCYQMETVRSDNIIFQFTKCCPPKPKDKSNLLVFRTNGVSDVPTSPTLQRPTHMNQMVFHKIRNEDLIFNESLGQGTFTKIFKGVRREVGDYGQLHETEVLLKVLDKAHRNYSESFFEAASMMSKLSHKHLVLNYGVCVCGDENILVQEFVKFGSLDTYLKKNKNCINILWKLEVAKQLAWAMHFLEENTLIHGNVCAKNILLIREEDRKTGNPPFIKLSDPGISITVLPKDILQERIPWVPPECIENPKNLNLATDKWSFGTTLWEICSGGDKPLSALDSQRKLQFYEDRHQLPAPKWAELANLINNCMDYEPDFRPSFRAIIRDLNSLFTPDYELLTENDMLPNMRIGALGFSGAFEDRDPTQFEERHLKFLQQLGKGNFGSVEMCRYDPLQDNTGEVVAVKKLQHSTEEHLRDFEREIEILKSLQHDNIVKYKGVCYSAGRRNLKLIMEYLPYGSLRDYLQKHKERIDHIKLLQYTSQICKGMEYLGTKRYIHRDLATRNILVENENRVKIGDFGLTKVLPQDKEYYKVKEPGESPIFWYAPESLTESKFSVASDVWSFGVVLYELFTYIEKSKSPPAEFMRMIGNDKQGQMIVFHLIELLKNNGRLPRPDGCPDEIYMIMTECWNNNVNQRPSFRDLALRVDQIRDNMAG
# Sequence of RAC-beta serine/threonine-protein kinase (Homo sapiens) (P31751 whole entry): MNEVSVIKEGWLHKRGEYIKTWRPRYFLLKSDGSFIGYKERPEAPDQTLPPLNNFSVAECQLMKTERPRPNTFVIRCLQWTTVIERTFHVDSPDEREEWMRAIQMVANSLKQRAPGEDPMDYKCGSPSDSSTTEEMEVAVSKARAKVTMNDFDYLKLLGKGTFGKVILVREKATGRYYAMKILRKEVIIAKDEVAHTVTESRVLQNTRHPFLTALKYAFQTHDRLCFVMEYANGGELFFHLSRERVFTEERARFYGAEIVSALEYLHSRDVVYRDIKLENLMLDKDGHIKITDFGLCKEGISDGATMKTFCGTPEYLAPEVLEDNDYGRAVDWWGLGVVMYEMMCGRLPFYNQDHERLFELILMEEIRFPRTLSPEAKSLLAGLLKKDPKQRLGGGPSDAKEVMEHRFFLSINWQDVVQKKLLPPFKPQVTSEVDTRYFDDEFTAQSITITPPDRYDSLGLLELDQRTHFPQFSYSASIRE
# Sequence of Transcription intermediary factor 1-beta (Homo sapiens) (Q13263 whole entry): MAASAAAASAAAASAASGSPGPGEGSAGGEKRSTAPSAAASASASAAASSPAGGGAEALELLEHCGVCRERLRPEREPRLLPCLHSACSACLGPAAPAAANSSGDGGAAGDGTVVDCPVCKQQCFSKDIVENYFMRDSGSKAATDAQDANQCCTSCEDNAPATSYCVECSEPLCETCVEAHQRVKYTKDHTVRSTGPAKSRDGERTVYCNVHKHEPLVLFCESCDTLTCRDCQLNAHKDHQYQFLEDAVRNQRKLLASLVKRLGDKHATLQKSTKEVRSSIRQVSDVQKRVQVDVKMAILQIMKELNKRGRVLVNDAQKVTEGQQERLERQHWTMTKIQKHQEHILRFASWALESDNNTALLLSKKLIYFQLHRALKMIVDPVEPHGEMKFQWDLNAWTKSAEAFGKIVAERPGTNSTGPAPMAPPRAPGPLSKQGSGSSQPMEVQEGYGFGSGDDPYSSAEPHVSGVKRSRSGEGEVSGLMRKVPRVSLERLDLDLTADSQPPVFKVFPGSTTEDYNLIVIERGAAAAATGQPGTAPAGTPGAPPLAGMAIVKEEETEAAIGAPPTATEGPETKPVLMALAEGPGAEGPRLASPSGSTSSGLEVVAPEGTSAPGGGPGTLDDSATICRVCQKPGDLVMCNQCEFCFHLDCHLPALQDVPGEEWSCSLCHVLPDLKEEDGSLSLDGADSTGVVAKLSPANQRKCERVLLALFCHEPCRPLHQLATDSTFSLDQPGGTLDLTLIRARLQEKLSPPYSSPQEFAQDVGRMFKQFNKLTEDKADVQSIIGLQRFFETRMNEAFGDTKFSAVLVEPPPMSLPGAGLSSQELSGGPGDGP
# Sequence of Citron Rho-interacting kinase (Homo sapiens) (O14578 whole entry): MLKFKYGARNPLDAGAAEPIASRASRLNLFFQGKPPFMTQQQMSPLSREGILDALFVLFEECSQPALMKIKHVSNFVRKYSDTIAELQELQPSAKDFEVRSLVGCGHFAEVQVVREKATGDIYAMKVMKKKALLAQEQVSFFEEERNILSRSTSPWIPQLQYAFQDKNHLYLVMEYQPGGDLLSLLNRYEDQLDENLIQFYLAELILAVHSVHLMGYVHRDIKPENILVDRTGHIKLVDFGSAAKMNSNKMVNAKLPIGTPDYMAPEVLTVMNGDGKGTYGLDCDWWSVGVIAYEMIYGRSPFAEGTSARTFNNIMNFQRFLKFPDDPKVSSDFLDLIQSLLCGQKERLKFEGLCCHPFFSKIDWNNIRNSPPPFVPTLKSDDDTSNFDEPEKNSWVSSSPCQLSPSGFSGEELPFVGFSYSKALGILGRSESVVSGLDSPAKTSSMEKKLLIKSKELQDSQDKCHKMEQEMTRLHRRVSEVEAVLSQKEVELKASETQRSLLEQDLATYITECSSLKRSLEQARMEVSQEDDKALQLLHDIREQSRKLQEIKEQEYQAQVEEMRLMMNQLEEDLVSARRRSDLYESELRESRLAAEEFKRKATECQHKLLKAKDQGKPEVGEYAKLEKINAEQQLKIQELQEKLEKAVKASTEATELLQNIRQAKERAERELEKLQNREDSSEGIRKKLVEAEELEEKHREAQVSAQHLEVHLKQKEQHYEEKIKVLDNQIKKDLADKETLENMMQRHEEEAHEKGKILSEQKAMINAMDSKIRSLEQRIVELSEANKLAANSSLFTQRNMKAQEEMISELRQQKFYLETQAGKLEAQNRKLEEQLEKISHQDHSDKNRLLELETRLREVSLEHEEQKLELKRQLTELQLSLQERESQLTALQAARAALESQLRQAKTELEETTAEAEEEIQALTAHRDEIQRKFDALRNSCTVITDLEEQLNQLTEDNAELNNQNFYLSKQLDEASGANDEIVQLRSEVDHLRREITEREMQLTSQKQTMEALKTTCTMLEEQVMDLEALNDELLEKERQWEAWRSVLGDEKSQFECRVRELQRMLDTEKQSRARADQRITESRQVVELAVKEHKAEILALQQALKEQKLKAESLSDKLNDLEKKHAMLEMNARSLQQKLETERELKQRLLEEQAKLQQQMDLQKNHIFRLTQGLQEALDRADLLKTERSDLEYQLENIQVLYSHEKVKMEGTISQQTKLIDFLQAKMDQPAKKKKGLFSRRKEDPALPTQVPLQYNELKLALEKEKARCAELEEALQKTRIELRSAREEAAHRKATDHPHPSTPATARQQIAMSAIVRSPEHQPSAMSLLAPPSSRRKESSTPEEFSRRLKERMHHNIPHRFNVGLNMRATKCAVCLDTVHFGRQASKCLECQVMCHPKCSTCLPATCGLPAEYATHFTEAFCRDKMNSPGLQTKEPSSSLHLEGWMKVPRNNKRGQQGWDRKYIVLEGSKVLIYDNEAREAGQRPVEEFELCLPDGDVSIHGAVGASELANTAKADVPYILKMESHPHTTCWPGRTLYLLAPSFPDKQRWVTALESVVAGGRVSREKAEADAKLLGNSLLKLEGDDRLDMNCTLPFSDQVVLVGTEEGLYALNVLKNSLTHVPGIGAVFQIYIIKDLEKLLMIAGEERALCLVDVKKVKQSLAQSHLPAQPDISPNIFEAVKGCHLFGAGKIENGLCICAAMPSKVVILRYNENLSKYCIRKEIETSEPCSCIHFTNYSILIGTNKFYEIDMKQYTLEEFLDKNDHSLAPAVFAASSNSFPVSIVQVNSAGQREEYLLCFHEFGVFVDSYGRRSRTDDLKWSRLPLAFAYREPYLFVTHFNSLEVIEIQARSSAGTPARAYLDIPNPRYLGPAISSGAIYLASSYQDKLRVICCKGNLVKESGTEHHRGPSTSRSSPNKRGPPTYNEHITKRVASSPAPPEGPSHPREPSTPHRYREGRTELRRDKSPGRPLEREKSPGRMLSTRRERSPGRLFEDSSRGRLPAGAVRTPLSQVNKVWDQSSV
compound,measurement,setting,value
COc1cc(N(C)c2ccnc3ccc(C(F)(F)F)cc23)cc(OC)c1OC,% binding,[1],78%
Nc1cnc(N2CCc3cc(S(=O)(=O)Nc4c(F)cc(Cl)cc4F)cc(N4CCCC4=O)c32)nc1 [TP-020n],% of control,[2],67%
same,% of control,[3],100%
CN(C)CCCOc1ccc(-c2cc(NCCCn3cccn3)nc(S(C)(=O)=O)n2)cc1,dTM,[4],< 2 K
CC[C@@H]1[C@H](F)C(=O)N[C@@H]1COc1nccc2cc(C(N)=O)c(OC)cc12 [ZIMLOVISERTIB],% of inhibition,[5],-16.5%
same,% of inhibition,[6],15.4%
COCC(=O)NC/C=C/c1ccc2ncnc(Nc3ccc(Oc4ccc(C)nc4)c(C)c3)c2c1 [CP-724714],% of control,[7],76%
CCC(=O)N1CCN(c2ccc(-n3c(=O)ccc4cnc5ccc(-c6cnc7ccccc7c6)cc5c43)cc2C(F)(F)F)CC1,% of control,[8],100%
CN(C)C/C=C/C(=O)Nc1ccc(C(=O)N2CCCC(Nc3ncc(Cl)c(-c4c[nH]c5ccccc45)n3)C2)cc1 (stereo not given),% of control,[9],100%
same,% of control,[10],95%
O[C@H]1CC[C@H](Nc2ncc3nc(Nc4c(F)cc(F)cc4F)n([C@H]4CCOC4)c3n2)CC1,% of control,[11],100%
Cc1ccc(-c2ccc3c(ccc4sc5c(c43)NC[C@@H](C)NC5=O)n2)cn1,% of inhibition,[12],8%
CNC(=O)Nc1ccc(-c2nc(N3CC4CCC(C3)O4)c3cnn(C4CCC5(CC4)OCCO5)c3n2)cc1,% of control,[13],100%
C=CC(=O)Nc1cccc(C(=O)Nc2ccc(Nc3cc(-c4[nH]c(SC)nc4C)ccn3)cc2)c1,% of control,[14]; at 1 µM,103%
same,% of control,[14]; at 5 µM,75%
